These results are taken from patent US8785377B2, “Tetrazolyl macrocyclic hepatitis C serine protease inhibitors” (Enanta Pharmaceuticals, Inc., priority 2006, dated 2014).

The nature of data set [1]: Pharmacokinetic analysis, single oral dose in rat. The following applies: in vivo, single oral dose of 20 mg/kg.
The target of data set [2] is full-length NS3 HCV protease 1b tethered with NS4A cofactor (Hepatitis C virus genotype 1b, UniProt Q9WMX2). The data set is described as follows: NS3/NS4a Protease Enzyme Assay. The format is biochemical. The procedure: HCV protease activity and inhibition is assayed using an internally quenched fluorogenic substrate. A DABCYL and an EDANS group are attached to opposite ends of a short peptide. Quenching of the EDANS fluorescence by the DABCYL group is relieved upon proteolytic cleavage. Fluorescence is measured with a Molecular Devices Fluoromax (or equivalent) using an excitation wavelength of 355 nm and an emission wavelength of 485 nm.
The assay is run in Corning white half-area 96-well plates (VWR 29444-312 [Corning 3693]) with full-length NS3 HCV protease 1b tethered with NS4A cofactor (final enzyme concentration 1 to 15 nM). The assay buffer is complemented with 10 μM NS4A cofactor Pep 4A (Anaspec 25336 or in-house, MW 1424.8). RET S1 (Ac-Asp-Glu-Asp(EDANS)-Glu-Glu-Abu-[COO]Ala-Ser-Lys-(DABCYL)-NH2, AnaSpec 22991, MW 1548.6) is used as the fluorogenic peptide substrate. The assay buffer contains 50 mM Hepes at pH 7.5, 30 mM NaCl and 10 mM BME. The enzyme reaction is followed over a 30 minutes time course at room temperature in the absence and presence of inhibitors.
The peptide inhibitors HCV Inh 1 (Anaspec 25345, MW 796.8) Ac-Asp-Glu-Met-Glu-Glu-Cys-OH, [−20° C.] and HCV Inh 2 (Anaspec 25346, MW 913.1) Ac-Asp-Glu-Dif-Cha-Cys-OH, are used as reference compounds.
IC50 values are calculated using XLFit in ActivityBase (IDBS) using equation 205: y=A+((B−A)/(1+((C/x)^D))).

The test system of data set [3] is HCV replicon RNA in Huh 11-7 cell line. The data set is described as follows: Cell-Based Replicon Assay. The following applies: Hepatitis C virus, 96 h; Huh 11-7 cells, 4 days. How it is done: Quantification of HCV replicon RNA (HCV Cell Based Assay) is accomplished using the Huh 11-7 cell line (Lohmann, et al Science 285:110-113, 1999). Cells are seeded at 4×10^3 cells/well in 96 well plates and fed media containing DMEM (high glucose), 10% fetal calf serum, penicillin-streptomycin and non-essential amino acids. Cells are incubated in a 7.5% CO2 incubator at 37° C. At the end of the incubation period, total RNA is extracted and purified from cells using Ambion RNAqueous 96 Kit (Catalog No. AM1812). To amplify the HCV RNA so that sufficient material can be detected by an HCV specific probe (below), primers specific for HCV (below) mediate both the reverse transcription of the HCV RNA and the amplification of the cDNA by polymerase chain reaction (PCR) using the TaqMan One-Step RT-PCR Master Mix Kit (Applied Biosystems catalog no. 4309169). The nucleotide sequences of the RT-PCR primers, which are located in the NS5B region of the HCV genome, are the following:
Detection of the RT-PCR product is accomplished using the Applied Biosystems (ABI) Prism 7500 Sequence Detection System (SDS) that detects the fluorescence that is emitted when the probe, which is labeled with a fluorescence reporter dye and a quencher dye, is degraded during the PCR reaction. The increase in the amount of fluorescence is measured during each cycle of PCR and reflects the increasing amount of RT-PCR product. Specifically, quantification is based on the threshold cycle, where the amplification plot crosses a defined fluorescence threshold. […] The data is analyzed using the ABI SDS program version 1.7. […]
The RT-PCR product was detected using the following labeled probe: […]
To normalize the data to an internal control molecule within the cellular RNA, RT-PCR is performed on the cellular messenger RNA glyceraldehyde-3-phosphate dehydrogenase (GAPDH). […] GAPDH RT-PCR is performed on the same RNA sample from which the HCV copy number is determined. […] The ratio of HCV/GAPDH RNA is used to calculate the activity of compounds evaluated for inhibition of HCV RNA replication. […]

full-length NS3 HCV protease 1b tethered with NS4A cofactor, sequence (Q9WMX2 1027-1657, other chains not shown): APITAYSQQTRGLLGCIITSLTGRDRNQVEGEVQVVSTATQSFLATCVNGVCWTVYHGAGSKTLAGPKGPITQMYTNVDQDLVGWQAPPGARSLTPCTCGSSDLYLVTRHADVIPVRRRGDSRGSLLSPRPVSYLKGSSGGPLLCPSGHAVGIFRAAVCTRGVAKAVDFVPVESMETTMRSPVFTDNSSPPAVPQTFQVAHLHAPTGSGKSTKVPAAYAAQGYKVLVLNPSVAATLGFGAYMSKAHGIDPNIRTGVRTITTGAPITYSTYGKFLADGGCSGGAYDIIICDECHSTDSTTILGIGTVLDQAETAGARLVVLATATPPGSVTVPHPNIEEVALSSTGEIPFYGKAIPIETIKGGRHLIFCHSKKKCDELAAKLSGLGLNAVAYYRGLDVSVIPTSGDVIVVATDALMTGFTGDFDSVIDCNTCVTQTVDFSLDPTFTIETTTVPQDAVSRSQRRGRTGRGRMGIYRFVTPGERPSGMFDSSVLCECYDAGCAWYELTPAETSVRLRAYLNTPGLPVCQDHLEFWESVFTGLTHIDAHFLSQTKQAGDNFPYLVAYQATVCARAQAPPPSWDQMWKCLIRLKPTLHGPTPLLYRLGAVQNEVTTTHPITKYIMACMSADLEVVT

Usually AUC stands for the area under the concentration-time curve, a measure of exposure. High values mean more exposure, low ones less exposure. In general, Cmax refers to the highest concentration seen after dosing. The term bioavailability denotes the share of a dose that reaches the circulation, judged against a reference dose that is usually intravenous. Broadly, the IC50 is the concentration that gives 50% inhibition. The EC50 is the concentration needed to bring the measured effect to its halfway point. Take `COc1ccc(-c2nnn(C3CC4C(=O)NC5(C(=O)NS(=O)(=O)C6CC6)CC5C=CCCCCCC(NC(=O)OC5CCCC5)C(=O)N4C3)n2)cc1` (stereo not drawn) [Example 36]: in data set [1], the AUC worked out at 52900 ng·h/mL, the Cmax worked out at 16100 ng/mL and the bioavailability is 76%. Also, the IC50 in data set [2] turned out to be 100 pM. The EC50 in data set [3] is 800 pM.
On to `COc1ccc(-n2nnc(C3CC4C(=O)NC5(C(=O)NS(=O)(=O)C6CC6)CC5C=CCCCCCC(NC(=O)OC5CCCC5)C(=O)N4C3)n2)cc1` (stereo not drawn) [Example 101], for which the IC50 in data set [2] was 400 pM. For the same molecule, the EC50 in data set [3] turned out to be 800 pM.
For the molecule `O=C(NC1CCCCCC=CC2CC2(C(=O)NS(=O)(=O)C2CC2)NC(=O)C2CC(n3nnc(-c4cccc5ccccc45)n3)CN2C1=O)OC1CCCC1` (stereo not drawn) [Example 117], the IC50 in data set [2] worked out at 200 pM. Also, in data set [3], the EC50 was 800 pM.
